Experimental data as given in patent publication US20230203043A1, “NOVEL IMIDAZOPYRAZINE DERIVATIVES” (Hoffmann-La Roche Inc., priority 2020, published 2023).
Counter-ions that a name gives are not always drawn. Like-named read-outs stand apart in the source and are kept apart here.

Test system: Acinetobacter baumannii ATCC17961
Experiment: Antimicrobial susceptibility testing: 90% growth inhibitory concentration (IC90) determination in Iso-Sensitest broth, OD600 growth
Format: cell-based
Procedure: Antimicrobial Susceptibility Testing:
90% Growth Inhibitory Concentration (IC90) Determination
The in vitro antimicrobial activity of the compounds was determined according to the following procedure:
The assay used a 10-points Iso-Sensitest broth medium to measure quantitatively the in vitro activity of the compounds against Acinetobacter baumannii ATCC17961 or ATCC17968.
Stock compounds in DMSO were serially twofold diluted (e.g. range from 50 to 0.097 μM final concentration) in 384 wells microtiter plates and inoculated with 49 μl the bacterial suspension in Iso-Sensitest medium to have a final cell concentration of ˜5×10^(5) CFU/ml in a final volume/well of 50 ul/well. Microtiter plates were incubated at 35±2° C.
Bacterial cell growth was determined with the measurement of optical density at λ=600 nm each 20 minutes over a time course of 16 h. Growth inhibition was calculated during the logarithmic growth of the bacterial cells with determination of the concentration inhibiting 50% (IC50) and 90% (IC90) of the growth.
Table 7 provides the 90% growth inhibitory concentrations (IC90) in micromoles per liter of the compounds of present invention obtained against the strain Acinetobacter baumannii ATCC17961 and/or ATCC17968.

[1] = strain ATCC 17961, OD600 growth over 16 h, read-out: A. baumannii ATCC 17961 IC90
[2] = Acinetobacter baumannii, ATCC17961, 16 h, strain ATCC 17961, OD600 growth over 16 h, read-out: A. baumannii ATCC 17961 IC90

| Compound | IC90 [2] | other results |
| --- | --- | --- |
| 4-[2-chloro-4- [[3-[1-(2- cyanoethyl)-3- pyrazol-4- yl]imidazo[1,2- a]pyrazin-8- yl]amino]benzoyl]- N-[(3R)- pyrrolidin-3- yl]piperazine-1- carboxamide formate [Example 261] | – | IC90 [1]: 0.521 µM |
| 4-[[3-[1-(2-cyanomethyl)-3-(trifluoromethyl)pyrazol-4-yl]imidazo[1,2-a]pyrazin-8-yl]amino]-2-ethyl-N-methylbenzamide [Example 337] | – | IC90 [1]: 0.359 µM |
| C#CC(C)n1cc(-c2cnc3c(Nc4ccc(C(=O)N5CCN(C(=O)[C@H](N)C(C)C)CC5)c(CC)c4)nccn23)c(C(F)F)n1 (mixture of isomers) [Example 799, (2R)-2-amino-1-(4-(4-((3-(1-(but-3-yn-2-yl)-3-(difluoromethyl)-1H-pyrazol-4-yl)imidazo [1,2-a]pyrazin-8-yl)amino)-2-ethylbenzoyl)piperazin-1-yl)-3-methylbutan-1-one (mixture of epimers)] | 2.74 µM | – |
| O=C(c1ccc(Nc2nccn3c(-c4c[nH]nc4C(F)(F)F)cnc23)cc1Cl)N1CCN(C(=O)[C@H]2CNC[C@H](O)C2)CC1 (racemic) [Example 353, [2-chloro-4-[[3-[3-(trifluoromethyl)-1H-pyrazol-4-yl]imidazo[1,2-a]pyrazin-8-yl]amino]phenyl]-[4-[rac-(3R,5R)-5-hydroxypiperidine-3-carbonyl]piperazin-1-yl]methanone] | 0.241 µM | – |
| O=C(NC1CCC(NC(=O)[C@H]2C[C@H](O)CN2)C1)c1ccc(Nc2nccn3c(-c4c[nH]nc4C(F)(F)F)cnc23)cc1Cl (mixture of isomers) [Example 373, rac-(2R,4S)-N-[3-[[2-chloro-4-[[3-[3-(trifluoromethyl)-1H-pyrazol-4-yl]imidazo[1,2-a]pyrazin-8-yl]amino]benzoyl]amino]cyclopentyl]-4-hydroxypyrrolidine-2-carboxamide] | 1.11 µM | – |
| O=C(NC1CCCN(C(=O)[C@H]2C[C@H](O)CN2)C1)c1ccc(Nc2nccn3c(-c4c[nH]nc4C(F)(F)F)cnc23)cc1Cl (mixture of isomers) [Example 387, 2-chloro-N-[1-[rac-(2R,4S)-4-hydroxypyrrolidine-2-carbonyl]piperidine-3-yl]-4-[[3-[3-(trifluoromethyl)-1H-pyrazol-4-yl]imidazo[1,2-a]pyrazin-8-yl]amino]benzamide] | 4.84 µM | – |
| N[C@@H]1CC[C@@H](NC(=O)c2ccc(Nc3nccn4c(-c5c[nH]nc5C(F)(F)F)cnc34)cc2Cl)C1 (racemic) [Example 407, 2-chloro-N-[rac-(1R,3R)-3-aminocyclopentyl]-4-[[3-[3-(trifluoromethyl)-1H-pyrazol-4-yl]imidazo[1,2-a]pyrazin-8-yl]amino]benzamide] | 2.96 µM | – |
| Cc1cc(Nc2nccn3c(-c4c[nH]nc4C(F)(F)F)cnc23)ccc1C(=O)N1CCN(C(=O)[C@H]2CNC[C@H](O)C2)CC1 (racemic) [Example 439, [2-methyl-4-[[3-[3-(trifluoromethyl)-1H-pyrazol-4-yl]imidazo[1,2-a]pyrazin-8-yl]amino]phenyl]-[4-[rac-(3R,5R)-5-hydroxypiperidine-3-carbonyl]piperazin-1-yl]methanone hydrochloride] | 0.834 µM | – |
| Cc1cc(Nc2nccn3c(-c4c[nH]nc4C(F)(F)F)cnc23)ccc1C(=O)N1CCN(C(=O)[C@@H]2CNCC[C@H]2O)CC1 (racemic) [Example 467, [2-methyl-4-[[3-[3-(trifluoromethyl)-1H-pyrazol-4-yl]imidazo[1,2-a]pyrazin-8-yl]amino]phenyl]-[4-[rac-(3R,4R)-4-hydroxypiperidine-3-carbonyl]piperazin-1-yl]methanone hydrochloride] | 1.42 µM | – |
| Cc1cc(Nc2nccn3c(-c4c[nH]nc4C(F)(F)F)cnc23)ccc1C(=O)N1CCN(C(=O)[C@@H]2CNCC[C@@H]2O)CC1 (racemic) [Example 468, [2-methyl-4-[[3-[3-(trifluoromethyl)-1H-pyrazol-4-yl]imidazo[1,2-a]pyrazin-8-yl]amino]phenyl]-[4-[rac-(3R,4S)-4-hydroxypiperidine-3-carbonyl]piperazin-1-yl]methanone hydrochloride] | 1.43 µM | – |
| C=CCn1cc(-c2cnc3c(Nc4ccc(C(=O)NCCOCC(C)N)c(CC)c4)nccn23)c(C(F)(F)F)n1 (stereo in doubt) [Example 146, N-[2-[(2S)-2-aminopropoxy]ethyl]-2-ethyl-4-[[3-[1-prop-2-enyl-3-(trifluoromethyl)pyrazol-4-yl]imidazo[1,2-a]pyrazin-8-yl]amino]benzamide] | – | IC90 [1]: 0.028 µM |
| C#CC(C)n1cc(-c2cnc3c(Nc4ccc(C(=O)N5CCN(C(=O)C(C)N)CC5)c(CC)c4)nccn23)c(C(F)F)n1 (stereo in doubt) [Example 784, (2R)-2-amino-1-(4-(4-((3-(1-(but-3-yn-2-yl)-3-(difluoromethyl)-1H-pyrazol-4-yl)imidazo [1,2-a]pyrazin-8-yl)amino)-2-ethylbenzoyl)piperazin-1-yl)propan-1-one (mixture of epimers)] | 1.24 µM | – |
| C#CC(C)n1cc(-c2cnc3c(Nc4ccc(C(=O)N5CCN(C(=O)[C@H]6C[C@H](O)CN6)CC5)c(CC)c4)nccn23)c(C(F)F)n1 (stereo in doubt) [Example 787, (4-(4-((3-(1-(but-3-yn-2-yl)-3-(difluoromethyl)-1H-pyrazol-4-yl)imidazo[1,2-a]pyrazin-8-yl)amino)-2-ethylbenzoyl)piperazin-1-yl)((2R,4S)-4-hydroxypyrrolidin-2-yl)methanone (mixture of epimers)] | 1.57 µM | – |
| CCc1cc(Nc2nccn3c(-c4cn(Cc5ccncn5)nc4C(F)(F)F)cnc23)ccc1C(=O)NCCOCCN [Example 2, N-[2-(2-aminoethoxy)ethyl]-2-ethyl-4-[[3-[1-(pyrimidin-4-ylmethyl)-3-(trifluoromethyl)pyrazol-4-yl]imidazo[1,2-a]pyrazin-8-yl]amino]benzamide] | 0.513 µM | – |
| CCc1cc(Nc2nccn3c(-c4cn(CC#N)nc4C(F)(F)F)cnc23)ccc1C(=O)NCCNC(=O)[C@@H]1CCCN1 [Example 3, (2S)—N-[2-[[4-[[3-[1-(cyanomethyl)-3-(trifluoromethyl)pyrazol-4-yl]imidazo[1,2-a]pyrazin-8-yl]amino]-2-ethylbenzoyl]amino]ethyl]pyrrolidine-2-carboxamide] | 0.16 µM | – |
| C#CCNC(=O)c1c(C)cc(Nc2nccn3c(-c4cn(CC#N)nc4C(F)(F)F)cnc23)cc1F [Example 4, 4-[[3-[1-(cyanomethyl)-3-(trifluoromethyl)pyrazol-4-yl]imidazo[1,2-a]pyrazin-8-yl]amino]-2-fluoro-6-methyl-N-prop-2-ynylbenzamide] | 0.132 µM | – |
| C#CCn1cc(-c2cnc3c(Nc4ccc(C(=O)N5CCN(C(=O)C6CCNCC6)CC5)c(CC)c4)nccn23)c(C(F)(F)F)n1 [Example 5, [2-ethyl-4-[[3-[1-prop-2-ynyl-3-(trifluoromethyl)pyrazol-4-yl]imidazo[1,2-a]pyrazin-8-yl]amino]phenyl]-[4-(piperidine-4-carbonyl)piperazin-1-yl]methanone] | 0.262 µM | – |
| NCC(=O)N1CCN(C(=O)c2ccc(Nc3nccn4c(-c5cn(CC(F)F)nc5C(F)(F)F)cnc34)cc2Cl)CC1 [Example 6, 2-amino-1-[4-[2-chloro-4-[[3-[1-(2,2-difluoroethyl)-3-(trifluoromethyl)pyrazol-4-yl]imidazo[1,2-a]pyrazin-8-yl]amino]benzoyl]piperazin-1-yl]ethanone] | 0.159 µM | – |
| CCc1cc(Nc2nccn3c(-c4cn(Cc5cccnc5)nc4C(F)(F)F)cnc23)ccc1C(=O)NCCCNCCCCNCCCN [Example 7, N-[3-[4-(3-aminopropylamino)butylamino]propyl]-2-ethyl-4-[[3-[1-(pyridin-3-ylmethyl)-3-(trifluoromethyl)pyrazol-4-yl]imidazo[1,2-a]pyrazin-8-yl]amino]benzamide hydrochloride] | – | IC90 (Acinetobacter baumannii, ATCC17961, 16 h, read-out: A. baumannii ATCC 17961 IC90 (uM), strain ATCC 17961, OD600 growth over 16 h): 0.782 µM |
| NCCNC(=O)CNC(=O)c1ccc(Nc2nccn3c(-c4cn(CCF)nc4C(F)(F)F)cnc23)cc1Cl [Example 8, N-[2-(2-aminoethylamino)-2-oxoethyl]-2-chloro-4-[[3-[1-(2-fluoroethyl)-3-(trifluoromethyl)pyrazol-4-yl]imidazo[1,2-a]pyrazin-8-yl]amino]benzamide formate] | 0.484 µM | – |
| O=C(c1ccc(N(c2nccn3c(-c4c[nH]nc4C(F)(F)F)cnc23)C(F)F)cc1Cl)N1CCNCC1 [Example 9, [2-chloro-4-[difluoromethyl-[3-[3-(trifluoromethyl)-1H-pyrazol-4-yl]imidazo[1,2-a]pyrazin-8-yl]amino]phenyl]-piperazin-1-ylmethanone] | 1.05 µM | – |
| CNC(=O)c1ccc(Nc2nccn3c(-c4cn(C(F)F)nc4C(F)(F)F)cnc23)cc1Cl [Example 10, 2-chloro-4-[[3-[1-(difluoromethyl)-3-(trifluoromethyl)pyrazol-4-yl]imidazo[1,2-a]pyrazin-8-yl]amino]-N-methylbenzamide] | 0.458 µM | – |
| N#CCn1cc(-c2cnc3c(Nc4ccc(C(=O)N5CCC(NC(=O)N[C@H]6CCNC6)CC5)c(Cl)c4)nccn23)c(C(F)(F)F)n1 [Example 11, 1-[1-[2-chloro-4-[[3-[1-(cyanomethyl)-3-(trifluoromethyl)pyrazol-4-yl]imidazo[1,2-a]pyrazin-8-yl]amino]benzoyl]piperidin-4-yl]-3-[(3S)-pyrrolidin-3-yl]urea] | 0.204 µM | – |
